From patent US20130237582A1, “PHARMACEUTICAL COMBINATION OF PACLITAXEL AND A CDK INHIBITOR” (Piramal Enterprises Limited, priority 2010, published 2013)

Key:
MCF-7 [1] = assay: Cell cycle progression and apoptosis by flow cytometry (sub-G1); assay type: cell-based, human; conditions: 4.5 μM
Description: Time dependent effect of Compound A on cell cycle progression and apoptosis was evaluated in two breast cancer cell lines. The asynchronous human breast cancer cell lines MCF-7 (Her low, ER+, PR+, BRCA+/−allelic loss) and MDA-MB-231 cells were seeded in […] tissue culture flask at a density of 0.5×10^6 cells per flask in RPMI 1460 with 10% FCS. After 24 h, cells were treated with 4.5 μM of Compound A for 0, 24, 48 and 72 h. Both detached and adherent cells were harvested (trypsinised) at different time points as mentioned in Table 3. After washing in phosphate buffered saline (PBS), cells were fixed in ice-cold 70% ethanol and stored at −20° C. until further analysis.
Before analysis, cells were washed twice with PBS to remove the fixative and re-suspended in PBS containing 50 μg/mL propidium iodide and 50 μg/mL RNaseA. After incubation at room temperature (20-35° C.) for 20 min, cells were analyzed using flow cytometry. A Becton Dickinson FACS Calibur flow cytometer (BD, USA) was used for these studies. The argon ion laser set at 488 nm was used as an excitation source. Cells with DNA content between 2n and 4n were designated as being in G1, S and G2/M phases of the cell cycle, as defined by the level of red fluorescence. […] The number of cells in each cell cycle compartment was expressed as a percentage of the total number of cells present. The results are shown in Table 3 and graphically presented in FIG. 3A (MCF-7 cell lines) and FIG. 3B (MDA-MB-231 cell lines).

[2] = molecular target: T1, CDK4-D1 (Cyclin D1 and CDK4) (Homo sapiens, UniProt P11802); assay: CDK4 kinase activity after immunoprecipitation from MCF-7 cells; assay type: cell-based; conditions: synchronized MCF-7; 1.5 μM; 3, 6, 9 and 12 h
T1 construct: endogenous in cells; host or cells: MCF-7 (serum-starved, synchronized)
Description: For immunoprecipitation assay, the MCF-7 cells were synchronized by serum starvation. These cells were treated with Compound A at 1.5 μM at various time points viz. 3 h, 6 h, 9 h and 12 h. Cells were harvested (trypsinised) and lysed using lysis buffer, and protein content was estimated. CDK4-D1 (Cyclin D1 and CDK4) was purified from the lysate by immunoprecipitation using specific antibody to CDK4. Immune complex was further purified using Protein A sepharose beads (Sigma Aldrich, USA). Immune complex was used to determine CDK4 activity using pRb as a substrate and ^32P labelled ATP (BRIT, India). Reaction mixed was applied to SDS-PAGE followed by transfer and autoradiography.

MCF-7 [3] = assay: Multicellular tumor spheroid (MCTS, 3D) formation; assay type: cell-based, human; conditions: MCF-7 MCTS
Description: The assay was carried out according to the method disclosed in Methods in Molecular Medicine, 2007, 140, 141-151.
The multicellular tumor spheroid (MCTS) model is one of the best-described 3D in vitro tumor model systems, which depicts many of the characteristics of tumor tissue and allows reproducible experiments, offering an excellent in vitro screening system. MCTS were propagated using the hanging drop method. Briefly, the cell monolayer was detached using trypsin-EDTA. Cell count was adjusted and 20 μL hanging droplets containing 1,000 cells/drop, were made in bacterial grade petridishes. These hanging drops were incubated for 24 h at 37° C. in a humidified atmosphere of 5% CO2. The MCTS thus generated were cultured in the presence or absence of varying concentrations (0.3 μM to 30 μM) of Compound A for 72 h.

[4] = test system: MDA-MB-231, MDA-MB-468 and MCF-7 cell lines; assay: Clonogenic assay or colony forming assay; assay type: cell-based, human; conditions: IC10, IC30, IC50 for 48 h, then 14 days drug-free
Description: MDA-MB-231, MDA-MB-468 and MCF-7 cell lines were seeded in RPMI 1460 with 10% FCS, at a density of 1500 cells/well in six well plates. […] The medium was removed at the end of the treatment and incubated in fresh medium (without drug) for 14 days. After 14 days the medium was aspirated and colonies were fixed with methanol and acetic acid mixture in the proportion of 2:1, rinsed with water and the fixation procedure was repeated. The plates were dried and colonies stained with 0.1% crystal violet for 5 min. The wells were finally rinsed with water and dried.

MDA-MB-468 = assay: Cytotoxicity assay using propidium iodide (PI); assay type: cell-based, human
Description: (§1) The propidium iodide fluorescence assay (PI) was carried out according to the procedure mentioned in Anticancer Drugs, 1995, 6, 522-32. The assay was developed to characterize the in vitro growth of human tumor cell lines as well as to test the cytotoxic activity of the compounds. Propidium iodide (PI) was used as a dye, which penetrates only damaged cellular membranes. Intercalation complexes are formed by PI with double-stranded DNA, which effect an amplification of the fluorescence. After freezing the cells at −20° C. for 24 h, PI had access to total DNA leading to total cell population counts. Background readings were obtained from cell-free wells containing media and propidium iodide. The human breast cancer cell lines (i.e. […] Control wells were treated with vehicle (DMSO). At the end of the incubation periods, the plates were assayed using PI cytotoxicity assay protocol. Percent cytoxicity was calculated at various drug concentrations and from the graph plotted the IC50 values were determined.

MDA-MB-231 = assay: Cytotoxicity assay using propidium iodide (PI); assay type: cell-based, human
Description: as §1

MCF-7 [5] = assay: Cytotoxicity assay using propidium iodide (PI); assay type: cell-based, human
Description: as §1

[6] = Homo sapiens, 48 h treatment, PI assay

T1 sequence (P11802 2-303 limits assumed): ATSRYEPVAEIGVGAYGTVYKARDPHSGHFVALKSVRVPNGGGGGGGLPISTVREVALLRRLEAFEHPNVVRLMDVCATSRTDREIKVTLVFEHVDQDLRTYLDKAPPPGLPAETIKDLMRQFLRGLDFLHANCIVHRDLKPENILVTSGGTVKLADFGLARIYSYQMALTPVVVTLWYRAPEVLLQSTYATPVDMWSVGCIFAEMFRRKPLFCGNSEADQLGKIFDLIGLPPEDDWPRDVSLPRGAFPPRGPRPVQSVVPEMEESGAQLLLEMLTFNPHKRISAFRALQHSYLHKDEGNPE
T1 sequence (P24385 whole entry partner): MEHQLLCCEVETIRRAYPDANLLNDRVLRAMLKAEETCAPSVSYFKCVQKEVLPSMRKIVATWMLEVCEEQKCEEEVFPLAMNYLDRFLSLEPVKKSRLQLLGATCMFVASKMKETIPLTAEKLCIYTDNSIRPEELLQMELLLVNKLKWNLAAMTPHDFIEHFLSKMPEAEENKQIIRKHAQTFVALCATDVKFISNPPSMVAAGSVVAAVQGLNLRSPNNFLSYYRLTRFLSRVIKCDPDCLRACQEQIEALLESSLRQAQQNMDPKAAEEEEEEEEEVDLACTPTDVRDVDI

CN1CC[C@@H](c2c(O)cc(O)c3c(=O)cc(-c4ccccc4Cl)oc23)[C@@H]1CO.Cl [Compound A, (+)-trans-2-(2-Chloro-phenyl)-5,7-dihydroxy-8-(2-hydroxymethyl-1-methyl-pyrrolidin-3-yl)-chromen-4-one hydrochloride]
% Apoptosis (MCF-7 [1]; 0 h): 1%
% Apoptosis (MCF-7 [1]; 24 h): 52%
% Apoptosis (MCF-7 [1]; 48 h): 80%
% Apoptosis (MCF-7 [1]; 72 h): 88%
CDK4 kinase activity [2]: Decrease in CDK4 kinase activity in cell-based assay was seen as early as 3 h onwards
concentration from which spheroid formation was arrested (MCF-7 [3]; 0.3 μM to 30 μM, 72 h): ≥ 3 µM
size of MCTS formed (MCF-7 [3]; 1 μM): smaller as compared to control
colony forming potential [4]: inhibit the colony forming potential in a dose dependent manner
IC50 (MDA-MB-468; [6]): 1000 nM
IC10 (MDA-MB-468; determined as in Example 3): 250 nM
IC30 (MDA-MB-468; determined as in Example 3): 500 nM
IC50 (MDA-MB-231; [6]): 1000 nM
IC10 (MDA-MB-231; determined as in Example 3): 450 nM
IC30 (MDA-MB-231; determined as in Example 3): 750 nM
IC50 (MCF-7 [5]; Homo sapiens, MCF7, PI assay): 1000 nM
IC10 (MCF-7 [5]; determined as in Example 3): 370 nM
IC30 (MCF-7 [5]; determined as in Example 3): 750 nM
